Data on six molecules can be found in ChEMBL document CHEMBL3997792, “Identification of the First Selective Activin Receptor-Like Kinase 1 Inhibitor, a Reversible Version of L-783277” (J Med Chem, 2017).

One may read the IC50 as the concentration at which inhibition is half-maximal. For orientation: inhibition means the change of the read-out against control, counted positive when it falls.

Calls of active or inactive are those of the source. No cut-off for these calls is given here. Some results are limits rather than exact numbers.

In data set [1] the target is T1, Activin receptor type-1-like (Homo sapiens, UniProt P37023). As to the kind of experiment: Inhibition of human ALK1 using casein as substrate in presence of [gamma-33P]-ATP by scintillation counting method.
Data set [2] concerns the target T2, Activin receptor type-1-like (Mus musculus) (UniProt Q61288).
T2 sequence (whole entry): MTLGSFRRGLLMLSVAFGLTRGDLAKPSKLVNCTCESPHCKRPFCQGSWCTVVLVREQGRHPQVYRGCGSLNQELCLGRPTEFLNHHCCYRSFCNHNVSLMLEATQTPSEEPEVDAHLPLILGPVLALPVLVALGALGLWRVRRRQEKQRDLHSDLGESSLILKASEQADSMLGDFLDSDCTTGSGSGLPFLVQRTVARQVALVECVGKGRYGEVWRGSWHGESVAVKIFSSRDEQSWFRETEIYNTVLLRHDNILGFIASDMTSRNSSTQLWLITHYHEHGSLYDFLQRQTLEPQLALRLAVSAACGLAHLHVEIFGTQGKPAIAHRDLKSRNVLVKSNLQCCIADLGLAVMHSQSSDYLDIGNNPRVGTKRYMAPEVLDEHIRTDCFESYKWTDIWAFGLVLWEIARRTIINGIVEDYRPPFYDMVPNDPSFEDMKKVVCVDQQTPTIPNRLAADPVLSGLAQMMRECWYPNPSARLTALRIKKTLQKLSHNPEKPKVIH
As to the kind of experiment: Inhibition of BMP9-stimulated ALK1 in mouse C2C12 cells assessed as reduction in Smad1/5 phosphorylation at 10 uM pretreated for 2 hrs followed by BMP9-stimulation after 30 mins by western blot analysis relative to control. Type of data set: cell-based. On the technique in general: Immunoblotting shows a protein as a band on a membrane.

In data set [3] the target is Receptor-type tyrosine-protein kinase FLT3 (Homo sapiens, UniProt P36888). Briefly: Inhibition of human FLT3 using EAIYAAPFAKKK peptide as substrate in presence of [gamma-33P]-ATP by scintillation counting method.
Data set [4] deals with T3, TGF-beta receptor type-1 (Mus musculus, UniProt Q64729).
T3 sequence (Q64729 whole entry): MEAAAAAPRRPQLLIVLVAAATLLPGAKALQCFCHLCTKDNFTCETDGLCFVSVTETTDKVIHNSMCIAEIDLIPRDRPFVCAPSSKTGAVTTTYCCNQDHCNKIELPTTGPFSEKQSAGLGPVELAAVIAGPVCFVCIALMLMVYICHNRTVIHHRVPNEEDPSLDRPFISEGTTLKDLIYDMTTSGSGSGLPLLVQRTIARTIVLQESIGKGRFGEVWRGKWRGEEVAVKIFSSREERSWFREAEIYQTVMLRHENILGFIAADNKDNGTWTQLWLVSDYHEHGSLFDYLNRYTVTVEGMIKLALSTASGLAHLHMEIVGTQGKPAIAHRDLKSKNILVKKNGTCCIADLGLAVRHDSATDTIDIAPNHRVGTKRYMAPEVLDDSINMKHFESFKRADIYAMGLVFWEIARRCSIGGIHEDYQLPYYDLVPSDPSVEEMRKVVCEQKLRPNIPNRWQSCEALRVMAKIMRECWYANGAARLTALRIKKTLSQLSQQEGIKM
As to the kind of experiment: Inhibition of ALK5 in mouse C2C12 cells assessed as decrease in TGFbeta1-induced Smad2/3 phosphorylation at 0.1 to 10 uM by Western blot method. The format is cell-based.

Data set [5] has as its target T3, TGF-beta receptor type-1. As to the kind of experiment: Inhibition of ALK5 in mouse C2C12 assessed as decrease in TGFbeta1-induced Smad1/5 phosphorylation at 0.1 to 10 uM by Western blot method.
Data set [6] addresses Vascular endothelial growth factor receptor 2 (Homo sapiens, UniProt P35968). Briefly: Inhibition of human KDR using poly[Glu:Tyr] (4:1) as substrate in presence of [gamma-33P]-ATP by scintillation counting method.
The target of data set [7] is T1, Activin receptor type-1-like. The conditions noted are these: 0.1 to 10 uM.
Description: Inhibition of ALK1 in human A375 cells assessed as decrease in MEK1/2 phosphorylation at 0.1 to 10 uM by western blot analysis
Data set [8] addresses MAP kinase-interacting serine/threonine-protein kinase 1 (Homo sapiens) (UniProt Q9BUB5). The conditions noted are these: 1 uM.
Description: Inhibition of human MNK1 at 1 uM using myelin basic protein as substrate in presence of [gamma-33P]-ATP by scintillation counting method relative to control
Data set [9] has as its target Dual specificity mitogen-activated protein kinase kinase 2 (Homo sapiens, UniProt P36507). Briefly: Inhibition of human MEK2 using ERK2 as substrate in presence of [gamma-33P]-ATP by scintillation counting method.
For data set [10], the target named is Dual specificity mitogen-activated protein kinase kinase 6 (Homo sapiens) (UniProt P52564). As to the kind of experiment: Inhibition of human MKK6 at 1 uM using p38a as substrate in presence of [gamma-33P]-ATP by scintillation counting method relative to control.
For data set [11], the target named is T2, Activin receptor type-1-like (Mus musculus). As to the kind of experiment: Inhibition of BMP9-stimulated ALK1 in mouse C2C12 cells assessed as decrease in p38 phosphorylation at 0.1 to 10 uM pretreated for 2 hrs followed by BMP9-stimulation after 30 mins by western blot analysis. The format is cell-based.
Data set [12] concerns the target Dual specificity mitogen-activated protein kinase kinase 6 (Homo sapiens, UniProt P52564). Briefly: Inhibition of human MKK6 using p38a as substrate in presence of [gamma-33P]-ATP by scintillation counting method.
Data set [13] concerns the target Dual specificity mitogen-activated protein kinase kinase 4 (Homo sapiens) (UniProt P45985). The conditions noted are these: 1 uM.
Description: Inhibition of human MKK4 at 1 uM using JNK1 as substrate in presence of [gamma-33P]-ATP by scintillation counting method relative to control
Data set [14] addresses T2, Activin receptor type-1-like (Mus musculus). Briefly: Inhibition of BMP9-stimulated ALK1 in mouse C2C12 cells assessed as decrease in ERK1/2 phosphorylation at 0.1 to 10 uM pretreated for 2 hrs followed by BMP9-stimulation after 30 mins by western blot analysis. Type of data set: cell-based.
The target of data set [15] is TGF-beta receptor type-2 (Homo sapiens) (UniProt P37173). Conditions: 1 uM.
Description: Inhibition of human TGFbetaR2 at 1 uM using myelin basic protein as substrate in presence of [gamma-33P]-ATP by scintillation counting method relative to control
The target of data set [16] is Vascular endothelial growth factor receptor 3 (Homo sapiens, UniProt P35916). Briefly: Inhibition of human FLT4 using poly[Glu:Tyr] (4:1) as substrate in presence of [gamma-33P]-ATP by scintillation counting method.
Data set [17] addresses Mitogen-activated protein kinase kinase kinase 7 (Homo sapiens) (UniProt O43318). Conditions: 1 uM.
Description: Inhibition of human TAK1 at 1 uM using casein as substrate in presence of [gamma-33P]-ATP by scintillation counting method relative to control
The target of data set [18] is T2, Activin receptor type-1-like (Mus musculus). Briefly: Inhibition of BMP9-stimulated ALK1 in mouse C2C12 cells assessed as decrease in MEK phosphorylation at 0.1 to 10 uM pretreated for 2 hrs followed by BMP9-stimulation after 30 mins by western blot analysis. The format is cell-based.
Data set [19] has as its target Mitogen-activated protein kinase kinase kinase 20 (Homo sapiens) (UniProt Q9NYL2). Conditions: 1 uM.
Description: Inhibition of human ZAK at 1 uM using myelin basic protein as substrate in presence of [gamma-33P]-ATP by scintillation counting method relative to control
Data set [20] concerns the target T2, Activin receptor type-1-like (Mus musculus). Briefly: Inhibition of BMP9-stimulated ALK1 in mouse C2C12 cells assessed as reduction in Smad1/5 phosphorylation at 0.1 to 10 uM pretreated for 2 hrs followed by BMP9-stimulation after 30 mins by western blot analysis. Type of data set: cell-based.
The target in data set [21] is MAP kinase-interacting serine/threonine-protein kinase 2 (Homo sapiens) (UniProt Q9HBH9). The conditions noted are these: 1 uM.
Description: Inhibition of human MNK2 at 1 uM using myelin basic protein as substrate in presence of [gamma-33P]-ATP by scintillation counting method relative to control
In data set [22] the target is T3, TGF-beta receptor type-1. As to the kind of experiment: Inhibition of ALK5 in mouse C2C12 cells assessed as decrease in TGFbeta1-induced Smad1/5 phosphorylation at 0.1 uM by Western blot method. The format is cell-based.
Data set [23] deals with T1, Activin receptor type-1-like. Briefly: Inhibition of human ALK1 at 10 uM using casein as substrate in presence of [gamma-33P]-ATP by scintillation counting method relative to control.

T1 sequence (P37023 whole entry): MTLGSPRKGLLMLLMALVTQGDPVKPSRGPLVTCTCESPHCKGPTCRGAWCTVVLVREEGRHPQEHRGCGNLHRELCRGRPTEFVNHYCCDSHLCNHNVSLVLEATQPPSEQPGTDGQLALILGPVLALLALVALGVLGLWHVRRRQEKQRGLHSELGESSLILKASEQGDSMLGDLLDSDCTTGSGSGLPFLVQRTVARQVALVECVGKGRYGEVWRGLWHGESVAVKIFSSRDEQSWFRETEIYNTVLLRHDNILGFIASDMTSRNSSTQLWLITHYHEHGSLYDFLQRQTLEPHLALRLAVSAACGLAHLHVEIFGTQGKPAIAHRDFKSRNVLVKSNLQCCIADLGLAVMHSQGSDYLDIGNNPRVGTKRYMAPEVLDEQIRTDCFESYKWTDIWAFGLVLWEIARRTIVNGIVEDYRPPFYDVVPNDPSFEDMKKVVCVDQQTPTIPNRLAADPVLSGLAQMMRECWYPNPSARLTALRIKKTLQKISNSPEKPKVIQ
Dual specificity mitogen-activated protein kinase kinase 6 (Homo sapiens), sequence (P52564 whole entry): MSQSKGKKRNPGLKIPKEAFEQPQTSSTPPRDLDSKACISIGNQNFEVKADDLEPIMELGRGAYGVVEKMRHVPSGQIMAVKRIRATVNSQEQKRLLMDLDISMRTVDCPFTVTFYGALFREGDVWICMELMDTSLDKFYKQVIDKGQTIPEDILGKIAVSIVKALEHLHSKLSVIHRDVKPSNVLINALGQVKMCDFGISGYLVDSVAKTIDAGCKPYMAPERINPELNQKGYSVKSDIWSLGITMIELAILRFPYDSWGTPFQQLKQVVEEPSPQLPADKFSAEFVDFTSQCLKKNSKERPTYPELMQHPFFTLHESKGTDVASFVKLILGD
Dual specificity mitogen-activated protein kinase kinase 6, sequence (P52564 whole entry): as above
Vascular endothelial growth factor receptor 3, sequence (P35916 whole entry): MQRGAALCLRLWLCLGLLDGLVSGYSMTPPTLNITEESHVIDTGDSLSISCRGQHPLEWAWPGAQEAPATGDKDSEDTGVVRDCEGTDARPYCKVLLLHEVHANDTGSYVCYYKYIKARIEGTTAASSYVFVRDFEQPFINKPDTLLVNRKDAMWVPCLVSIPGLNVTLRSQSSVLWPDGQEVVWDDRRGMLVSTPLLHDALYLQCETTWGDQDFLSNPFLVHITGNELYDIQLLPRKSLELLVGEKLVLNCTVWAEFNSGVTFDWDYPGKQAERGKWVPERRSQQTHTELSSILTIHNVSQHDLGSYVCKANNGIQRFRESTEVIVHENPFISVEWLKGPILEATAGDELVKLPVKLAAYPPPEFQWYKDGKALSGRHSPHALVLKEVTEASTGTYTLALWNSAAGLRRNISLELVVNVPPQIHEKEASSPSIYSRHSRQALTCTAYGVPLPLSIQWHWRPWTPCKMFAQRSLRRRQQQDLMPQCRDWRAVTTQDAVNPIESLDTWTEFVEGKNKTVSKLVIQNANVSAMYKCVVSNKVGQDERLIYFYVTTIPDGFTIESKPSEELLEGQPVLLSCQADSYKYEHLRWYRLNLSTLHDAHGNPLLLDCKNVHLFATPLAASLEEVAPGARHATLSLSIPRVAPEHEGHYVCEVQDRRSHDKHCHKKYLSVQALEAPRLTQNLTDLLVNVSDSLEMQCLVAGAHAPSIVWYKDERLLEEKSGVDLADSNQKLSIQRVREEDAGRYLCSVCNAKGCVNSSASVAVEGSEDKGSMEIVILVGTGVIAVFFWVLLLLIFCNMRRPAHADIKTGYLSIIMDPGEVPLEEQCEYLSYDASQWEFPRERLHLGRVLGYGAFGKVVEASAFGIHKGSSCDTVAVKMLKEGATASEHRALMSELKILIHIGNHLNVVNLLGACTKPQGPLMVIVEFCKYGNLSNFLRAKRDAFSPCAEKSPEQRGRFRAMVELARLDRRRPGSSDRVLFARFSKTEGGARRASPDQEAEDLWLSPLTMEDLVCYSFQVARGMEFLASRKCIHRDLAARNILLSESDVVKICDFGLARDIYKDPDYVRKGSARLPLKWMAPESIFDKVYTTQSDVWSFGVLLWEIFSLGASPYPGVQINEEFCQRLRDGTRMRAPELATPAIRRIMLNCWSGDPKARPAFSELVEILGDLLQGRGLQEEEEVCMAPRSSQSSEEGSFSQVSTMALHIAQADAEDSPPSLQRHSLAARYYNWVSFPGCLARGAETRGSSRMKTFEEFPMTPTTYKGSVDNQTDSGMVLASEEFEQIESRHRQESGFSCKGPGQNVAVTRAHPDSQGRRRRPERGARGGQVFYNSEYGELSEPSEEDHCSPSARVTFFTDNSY
MAP kinase-interacting serine/threonine-protein kinase 1 (Homo sapiens), sequence (Q9BUB5 whole entry, looked up): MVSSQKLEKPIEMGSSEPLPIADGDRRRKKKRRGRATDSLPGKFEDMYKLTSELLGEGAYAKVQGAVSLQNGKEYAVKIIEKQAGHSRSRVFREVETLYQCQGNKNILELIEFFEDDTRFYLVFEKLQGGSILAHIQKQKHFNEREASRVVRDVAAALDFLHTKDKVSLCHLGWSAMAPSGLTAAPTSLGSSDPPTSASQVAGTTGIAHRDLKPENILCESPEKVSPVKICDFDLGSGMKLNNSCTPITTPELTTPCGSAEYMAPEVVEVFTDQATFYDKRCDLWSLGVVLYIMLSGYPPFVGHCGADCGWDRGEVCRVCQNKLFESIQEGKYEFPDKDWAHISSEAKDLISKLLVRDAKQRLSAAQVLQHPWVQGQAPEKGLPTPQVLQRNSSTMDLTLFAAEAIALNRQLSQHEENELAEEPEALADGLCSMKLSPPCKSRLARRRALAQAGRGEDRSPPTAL
Vascular endothelial growth factor receptor 2, sequence (P35968 whole entry): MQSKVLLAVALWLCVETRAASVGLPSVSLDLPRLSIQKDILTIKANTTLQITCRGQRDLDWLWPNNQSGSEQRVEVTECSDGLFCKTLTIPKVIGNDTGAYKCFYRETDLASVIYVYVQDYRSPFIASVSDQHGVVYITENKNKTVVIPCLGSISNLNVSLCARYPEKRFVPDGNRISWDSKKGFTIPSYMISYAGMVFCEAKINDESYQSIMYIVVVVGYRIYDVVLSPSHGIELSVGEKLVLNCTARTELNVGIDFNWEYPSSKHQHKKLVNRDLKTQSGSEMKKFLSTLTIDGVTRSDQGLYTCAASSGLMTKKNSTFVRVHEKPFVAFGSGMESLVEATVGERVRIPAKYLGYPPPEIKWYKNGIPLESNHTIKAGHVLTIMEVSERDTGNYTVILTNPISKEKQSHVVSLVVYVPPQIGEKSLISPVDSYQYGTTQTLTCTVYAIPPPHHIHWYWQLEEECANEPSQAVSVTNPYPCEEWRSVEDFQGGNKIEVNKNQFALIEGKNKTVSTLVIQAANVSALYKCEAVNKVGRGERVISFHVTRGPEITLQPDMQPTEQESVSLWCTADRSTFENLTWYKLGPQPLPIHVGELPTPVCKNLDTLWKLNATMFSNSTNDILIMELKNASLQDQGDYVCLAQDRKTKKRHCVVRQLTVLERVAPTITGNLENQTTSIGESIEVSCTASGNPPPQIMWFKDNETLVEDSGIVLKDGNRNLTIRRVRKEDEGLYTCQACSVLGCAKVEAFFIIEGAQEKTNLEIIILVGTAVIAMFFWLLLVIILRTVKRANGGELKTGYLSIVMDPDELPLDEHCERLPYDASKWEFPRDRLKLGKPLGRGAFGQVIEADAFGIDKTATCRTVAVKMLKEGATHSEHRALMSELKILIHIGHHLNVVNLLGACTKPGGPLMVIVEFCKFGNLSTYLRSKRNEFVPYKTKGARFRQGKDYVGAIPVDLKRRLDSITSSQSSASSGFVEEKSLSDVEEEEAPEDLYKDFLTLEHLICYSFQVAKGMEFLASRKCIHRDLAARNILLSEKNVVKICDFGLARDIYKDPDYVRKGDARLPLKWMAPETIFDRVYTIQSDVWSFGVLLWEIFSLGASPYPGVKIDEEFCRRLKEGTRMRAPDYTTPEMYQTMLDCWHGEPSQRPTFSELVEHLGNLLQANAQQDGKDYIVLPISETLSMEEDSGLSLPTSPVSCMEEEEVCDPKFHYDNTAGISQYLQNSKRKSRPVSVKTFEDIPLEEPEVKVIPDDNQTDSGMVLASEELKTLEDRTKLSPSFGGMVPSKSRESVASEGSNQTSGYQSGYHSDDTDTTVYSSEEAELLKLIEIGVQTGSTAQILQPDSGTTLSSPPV
Mitogen-activated protein kinase kinase kinase 7 (Homo sapiens), sequence (O43318 whole entry): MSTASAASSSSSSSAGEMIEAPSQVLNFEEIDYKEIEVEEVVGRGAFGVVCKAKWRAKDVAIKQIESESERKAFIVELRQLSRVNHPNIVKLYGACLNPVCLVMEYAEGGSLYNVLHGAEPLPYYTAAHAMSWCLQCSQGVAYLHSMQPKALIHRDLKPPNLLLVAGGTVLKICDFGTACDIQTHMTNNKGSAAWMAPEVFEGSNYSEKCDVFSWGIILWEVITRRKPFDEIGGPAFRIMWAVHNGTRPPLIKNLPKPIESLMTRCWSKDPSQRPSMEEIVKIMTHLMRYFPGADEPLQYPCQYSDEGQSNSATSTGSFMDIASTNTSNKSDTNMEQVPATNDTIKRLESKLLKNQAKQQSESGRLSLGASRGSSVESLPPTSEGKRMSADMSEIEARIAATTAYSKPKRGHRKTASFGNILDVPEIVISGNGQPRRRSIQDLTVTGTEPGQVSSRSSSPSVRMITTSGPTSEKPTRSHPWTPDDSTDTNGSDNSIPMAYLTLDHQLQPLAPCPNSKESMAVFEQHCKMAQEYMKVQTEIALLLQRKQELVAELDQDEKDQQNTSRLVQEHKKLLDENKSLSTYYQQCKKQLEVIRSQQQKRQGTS
Dual specificity mitogen-activated protein kinase kinase 2, sequence (P36507 whole entry): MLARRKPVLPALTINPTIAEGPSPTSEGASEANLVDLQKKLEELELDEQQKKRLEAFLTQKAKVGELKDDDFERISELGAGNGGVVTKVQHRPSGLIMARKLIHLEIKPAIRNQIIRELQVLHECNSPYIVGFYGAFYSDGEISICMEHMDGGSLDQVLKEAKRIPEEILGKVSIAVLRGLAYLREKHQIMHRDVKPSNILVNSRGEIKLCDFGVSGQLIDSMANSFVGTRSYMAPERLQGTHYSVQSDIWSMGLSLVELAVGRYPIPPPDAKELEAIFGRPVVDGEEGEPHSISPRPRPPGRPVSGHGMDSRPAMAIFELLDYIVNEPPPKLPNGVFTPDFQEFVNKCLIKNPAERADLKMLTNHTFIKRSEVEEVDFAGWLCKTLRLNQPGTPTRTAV

On to `COc1cc(O)c2c(c1)CCC[C@H](O)[C@H](O)[C@@H](O)CCC[C@H](C)OC2=O`, for which the IC50 in data set [1] is 770 nM. In addition, in data set [2], the inhibition lay within 70 to 80%.
As for `COc1cc(O)c2c(c1)CCC[C@H](O)[C@H](O)C(=O)/C=C\C[C@H](C)OC2=O`, the IC50 amounted to 1.59 nM in data set [3]; 6.34 nM in data set [6]; 8.16 nM in data set [9]; 388 nM in [12]; 125 nM in data set [1]; 1.13 nM in data set [16]. For the same molecule, the “inhibition (INH)” value on TGF-beta receptor type-1 [4] and on TGF-beta receptor type-1 [5] was “Active” throughout. The inhibition result in data set [7], in data set [11], in [14], in [18] and in data set [20] was “Active” throughout. The inhibition in data set [8], in [10], in data set [13], in data set [15], in data set [17] and in [19] was over 80% in each case. The same molecule gave an inhibition in data set [21] of over 80%.
For the molecule `c1ccc2c(-c3cnn4cc(-c5ccc(N6CCNCC6)cc5)cnc34)ccnc2c1`, the “inhibition (INH)” value at TGF-beta receptor type-1 [22] is “Active”.
With `COc1cc(O)c2c(c1)CCC[C@H](O)[C@H](O)[C@H](O)CCC[C@H](C)OC2=O`, the IC50 in data set [1] was 1780 nM. Besides, in data set [2], the inhibition entry was “Active”.
In the same order, the values of `C=C1CCC[C@H](C)OC(=O)c2c(O)cc(OC)cc2CCC[C@H](O)[C@@H]1O` are 1260 nM and 70 to 80%.
Turning to `COc1cc(O)c2c(c1)CCC[C@H](O)[C@H](O)C(=O)NCC[C@H](C)OC2=O`, in [23], the inhibition was under 40%. Further, the inhibition result in data set [2] is “inactive”.
